Test results: patent US11191746B2, “Composition for inhibiting a growth of cancer stem cells comprising ciclesonide” (JEJU NATIONAL UNIVERSITY INDUSTRY-ACADEMIC COOPERATION …, priority 2016, dated 2021)

Assays:
Type in all cases: cell-based, human
[1] = system: MCF-7 cell-derived mammospheres; assay: Mammosphere formation; settings: MCF-7 mammospheres, 80 μM
Procedure: (§1) Human breast cancer cells, MCF-7, were obtained from American Type Culture Collection (ATCC; Manassas, Va., USA). MCF-7 cells and MDA-MB-231 cells were cultured in Dulbecco's Modified Essential Medium (DMEM; Hyclone, Logan, Utah, USA) containing 10% fetal bovine serum (FBS; Hyclone), 100 U/ml of penicillin, and 100 μg/ml of streptomycin (Hyclone). The MCF-7 cells were maintained in a humidified incubator containing 5% CO2 at 37° C. The cells were plated in 10 cm culture dishes at a density of 1×10^6 cells. To establish primary mammospheres, single cell-suspended MCF-7 cells were inoculated into ultra-low attachment 6-well plates containing 2 ml of complete MammoCult™ medium (StemCell Technologies, Vancouver, BC, Canada) at a density of 3.5 to 4×10^4 cells/well. The complete MammoCult™ medium was supplemented with 4 μg/ml of heparin, 0.48 μg/ml of hydrocortisone, 100 U/ml of penicillin, and 100 μg/ml of streptomycin. The cells were incubated in a 5% CO2 incubator at 37° C. for 7 days.
(§2) On day 10 of culture, cell culture plates were placed on a scanner (Epson Perfection V700 PHOTO, Epson Korea, Co, Seoul, Korea) to obtain 8-bit gray scale images of mammospheres. The images were acquired using a NICE software program downloaded from ftp://ftp.nist.gov/pub/physics/mlclarke/NICE at a low resolution of 300 dpi. For counting, a desired number of rows and columns (e.g., 2×3 for a 6-well plate) were selected to generate ROIs and after selecting the elliptical setting of the NICE program, the individual ROIs were defined by adjusting the movement and size of the provided ROI shapes. The background signals of the images were negated using a threshold algorithm, and the selected images were automatically counted. To analyze the formation of mammospheres, mammosphere formation efficiency (MFE, %) was determined by the following equation: MFE (%)=the number of mammospheres per well/a total number of plated cells per well×100.

[2] = system: MDA-MB-231 cell-derived mammospheres; assay: Mammosphere formation; settings: MDA-MB-231 mammospheres, 80 μM
Procedure: as §1, §2

[3] = system: A549 cell-derived tumorspheres; assay: Tumorsphere formation; settings: A549 tumorspheres
Procedure: Human lung cancer cells, A549, were cultured under the same culture conditions as those for the breast cancer cells of Example 2-1. To establish primary tumorspheres, single cell-suspended A549 cells were inoculated into ultra-low attachment 6-well plates containing 2 ml of Cancer Stem Premium medium (ProMab Biotechnologies Inc, Richmond, Calif., USA) at a density of 5×10^4 cells/well. The cells were incubated in a 5% CO2 incubator at 37° C. for 10 days.
Lung cancer tumorspheres were counted in the same manner as in Example 3-1, and for the analysis of tumorsphere formation, tumorsphere formation efficiency (TFE, %) was determined by the following equation: TFE (%)=number of tumorspheres per well/total number of plated cells per well×100.

Row | Molecule | growth of breast cancer stem cells [1] | growth of breast cancer stem cells [2] | lung cancer stem cell inhibitory activity ([3]; 80 μM) | lung cancer stem cell inhibitory activity ([3]; 5 μM and 10 μM)
1 | C[C@]12C=CC(=O)C=C1CC[C@@H]1[C@@H]2C(=O)C[C@@]2(C)[C@H]1CC[C@]2(O)C(=O)CO [prednisone] | unable to inhibit | unable to inhibit | did not exhibit a lung cancer stem cell inhibitory activity | 
2 | isobutyryl ciclesonide |  |  |  | exhibited a lung cancer stem cell inhibitory activity
